{"source": "patent US8450372B2", "about": "“Formulations of suberoylanilide hydroxamic acid and methods for producing same” (Merck Sharp & Dohme Corp., priority 2005, dated 2013)", "key": {"[1]": {"test": "Dissolution rate of about 100 mg SAHA API before encapsulation (USP Dissolution Apparatus II, 900 mL 2.0% Tween, 37±0.5° C., 100 rpm, HPLC)", "type": "physicochemical", "conditions": "for Average SAHA % Dissolved at Time, minutes 0: 0 minutes; for Average SAHA % Dissolved at Time, minutes 10: 10 minutes; for Average SAHA % Dissolved at Time, minutes 15: 15 minutes; for Average SAHA % Dissolved at Time, minutes 20: 20 minutes; for Average SAHA % Dissolved at Time, minutes 30: 30 minutes; for Average SAHA % Dissolved at Time, minutes 45: 45 minutes; for Average SAHA % Dissolved at Time, minutes 60: 60 minutes", "experimental": "Dissolution rates or profiles in vitro of “about 100 mg of the active ingredient of the pharmaceutical composition” is measured according to the steps and conditions in Example 15. In one embodiment, it is measured by using a USP Dissolution Apparatus II with a helical sinker (Quality Lab Accessories L.L.C., Manville, N.J.) in 900 mL of 2.0% Tween (TCI America, Portland, Oreg.) at a temperature of 37±0.5° C., and paddles rotated at 100 rpm.\nThe dissolution rate of 100 mg of SAHA API before encapsulation was evaluated using a USP Dissolution Apparatus II (VK 7000, Varian Inc., Cary, N.C.). About 100 mg of SAHA was delivered to vessels containing 900 mL of 2.0% Tween (TCI America, Portland, Oreg.) at a temperature of 37±0.5° C. The paddles were rotated at 100 rpm and samples were pulled at specified time intervals via an autosampler (VK 8000, Varian Inc., Cary, N.C.) equipped with 35 μm full flow filters (Varian Inc., Cary, N.C.).\nSubsequently, samples were assayed for SAHA by High Performance Liquid Chromatography (Agilent 1100 series, Agilent Technologies Inc., Wilmington, Del.). The chromatographic analysis was conducted using a Phenomenex Luna C8 (2) (100×4.6 mm) 5 μm particle size column, a mobile phase of 1:1 methanol/0.1% trifluroacetic acid (Reagent Grade, Fisher), and a detection wavelength of 242 nm."}, "[2]": {"test": "Solubility of SAHA raw material (physical and chemical properties of raw materials)", "type": "physicochemical", "conditions": "water", "description": "Table 10 summarizes the physical properties of the raw materials in the capsule."}, "[3]": {"test": "Phase I study: single- and multiple-dose serum pharmacokinetics of oral vorinostat 400 mg, fasted and after high-fat meal", "type": "in vivo, human", "conditions": "for fe (fraction of dose excreted unchanged in urine): arithmetic mean; for Tmax: median; for AUC(0-t): read-out: AUC0-24 hr", "experimental": "(§1) This Phase I study conducted in advanced stage cancer patients assessed safety and tolerability of oral vorinostat administered 400 mg q.d., single- and multiple-dose serum pharmacokinetics (PK) of vorinostat, and the effect of a standard high-fat meal on single-dose vorinostat PK. Patients received a single-dose of 400 mg vorinostat on Day 1 (fasted) and Day 5 (after a standard high-fat meal) with 48 hours of postdose PK sampling on both days. Patients then received 400 mg vorinostat once a day on Days 7 through 28 (22 days of dosing). On Day 28, vorinostat was administered after a standard high-fat meal with PK sampling for 24 hrs postdose. Of 23 patients enrolled, 23 were evaluable for Day 1 PK, 20 for Day 5 PK, and 14 for Day 28 PK. The apparent t1/2 of vorinostat was short.\nTable 22: PK Parameters of Vorinostat Following Single and Multiple Doses of Vorinostat 400 mg Daily"}, "[4]": {"test": "Phase I study: safety and tolerability of oral vorinostat 400 mg q.d.", "type": "in vivo, human", "conditions": "short-term administration, patients with advanced cancer", "experimental": "as §1"}, "[5]": {"conditions": "400 mg single oral dose, high-fat meal vs fasted"}, "[6]": {"conditions": "single dose fed/single dose fasted, 400 mg"}}, "note": "Like-named read-outs stand apart in the source and are kept apart here. Marks after values point to notes of the source that are not given here."}
{"smiles": "O=C(CCCCCCC(=O)Nc1ccccc1)NO", "note": "[1007D, suberoylanilide hydroxamic acid]", "values": [{"measurement": "Average SAHA % Dissolved at Time, minutes 0", "setting": "[1]", "value": 0.0, "unit": "%"}, {"measurement": "Average SAHA % Dissolved at Time, minutes 10", "setting": "[1]", "value": 37.8, "unit": "%"}, {"measurement": "Average SAHA % Dissolved at Time, minutes 15", "setting": "[1]", "value": 46.1, "unit": "%"}, {"measurement": "Average SAHA % Dissolved at Time, minutes 20", "setting": "[1]", "value": 52.1, "unit": "%"}, {"measurement": "Average SAHA % Dissolved at Time, minutes 30", "setting": "[1]", "value": 61.9, "unit": "%"}, {"measurement": "Average SAHA % Dissolved at Time, minutes 45", "setting": "[1]", "value": 71.8, "unit": "%"}, {"measurement": "Average SAHA % Dissolved at Time, minutes 60", "setting": "[1]", "value": 79.3, "unit": "%"}]}
{"smiles": "O=C(CCCCCCC(=O)Nc1ccccc1)NO", "note": "[1008D, suberoylanilide hydroxamic acid]", "values": [{"measurement": "Average SAHA % Dissolved at Time, minutes 0", "setting": "[1]", "value": 0.0, "unit": "%"}, {"measurement": "Average SAHA % Dissolved at Time, minutes 10", "setting": "[1]", "value": 26.8, "unit": "%"}, {"measurement": "Average SAHA % Dissolved at Time, minutes 15", "setting": "[1]", "value": 34.8, "unit": "%"}, {"measurement": "Average SAHA % Dissolved at Time, minutes 20", "setting": "[1]", "value": 41.5, "unit": "%"}, {"measurement": "Average SAHA % Dissolved at Time, minutes 30", "setting": "[1]", "value": 51.3, "unit": "%"}, {"measurement": "Average SAHA % Dissolved at Time, minutes 45", "setting": "[1]", "value": 61.8, "unit": "%"}, {"measurement": "Average SAHA % Dissolved at Time, minutes 60", "setting": "[1]", "value": 69.8, "unit": "%"}]}
{"smiles": "O=C(CCCCCCC(=O)Nc1ccccc1)NO", "note": "[1136-1136-00-001, suberoylanilide hydroxamic acid]", "values": [{"measurement": "Average SAHA % Dissolved at Time, minutes 0", "setting": "[1]", "value": 0.0, "unit": "%"}, {"measurement": "Average SAHA % Dissolved at Time, minutes 10", "setting": "[1]", "value": 38.2, "unit": "%"}, {"measurement": "Average SAHA % Dissolved at Time, minutes 15", "setting": "[1]", "value": 48.9, "unit": "%"}, {"measurement": "Average SAHA % Dissolved at Time, minutes 20", "setting": "[1]", "value": 57.3, "unit": "%"}, {"measurement": "Average SAHA % Dissolved at Time, minutes 30", "setting": "[1]", "value": 69.3, "unit": "%"}, {"measurement": "Average SAHA % Dissolved at Time, minutes 45", "setting": "[1]", "value": 80.6, "unit": "%"}, {"measurement": "Average SAHA % Dissolved at Time, minutes 60", "setting": "[1]", "value": 87.7, "unit": "%"}]}
{"smiles": "O=C(CCCCCCC(=O)Nc1ccccc1)NO", "note": "[1376-C-RO-02, suberoylanilide hydroxamic acid]", "values": [{"measurement": "Average SAHA % Dissolved at Time, minutes 0", "setting": "[1]", "value": 0.0, "unit": "%"}, {"measurement": "Average SAHA % Dissolved at Time, minutes 10", "setting": "[1]", "value": 31.1, "unit": "%"}, {"measurement": "Average SAHA % Dissolved at Time, minutes 15", "setting": "[1]", "value": 39.7, "unit": "%"}, {"measurement": "Average SAHA % Dissolved at Time, minutes 20", "setting": "[1]", "value": 47.1, "unit": "%"}, {"measurement": "Average SAHA % Dissolved at Time, minutes 30", "setting": "[1]", "value": 58.3, "unit": "%"}, {"measurement": "Average SAHA % Dissolved at Time, minutes 45", "setting": "[1]", "value": 70.1, "unit": "%"}, {"measurement": "Average SAHA % Dissolved at Time, minutes 60", "setting": "[1]", "value": 78.3, "unit": "%"}]}
{"smiles": "O=C(CCCCCCC(=O)Nc1ccccc1)NO", "note": "[vorinostat, N-hydroxy-N′-phenyloctanediamide]", "values": [{"measurement": "solubility", "setting": "[2]", "value": "< 100", "unit": "µg/mL"}, {"measurement": "Accumulation ratio: AUC0-24 hr multiple dose fed/AUC0-24 hr single dose fed (GMR)", "setting": "[3]; 400 mg daily", "value": 1.21}, {"measurement": "Linearity ratio: AUC0-24 hr multiple dose fed/AUC0-∞ single dose fed (GMR)", "setting": "[3]; 400 mg daily", "value": 1.23}, {"measurement": "fe (fraction of dose excreted unchanged in urine)", "setting": "[3]; 400 mg oral, multiple doses (once daily for 22 days), fed, n = 12", "value": 0.0037}, {"measurement": "t1/2", "setting": "[3]; 400 mg oral, multiple doses (once daily for 22 days), fed, harmonic mean", "value": 1.34, "unit": "h"}, {"measurement": "Cmax", "setting": "[3]; 400 mg oral, multiple doses (once daily for 22 days), fed, serum, geometric mean", "value": 1130, "unit": "nM"}, {"measurement": "fe (fraction of dose excreted unchanged in urine)", "setting": "[3]; 400 mg oral, single dose, fasted, n = 22", "value": 0.0021}, {"measurement": "Tmax", "setting": "[3]; 400 mg oral, single dose, fasted", "value": 1.50, "unit": "h"}, {"measurement": "AUC0-∞", "setting": "[3]; 400 mg oral, single dose, fed (high-fat meal), serum, geometric mean", "value": 5.33, "unit": "µM·h"}, {"measurement": "fe (fraction of dose excreted unchanged in urine)", "setting": "[3]; 400 mg oral, single dose, fed, n = 21", "value": 0.0030}, {"measurement": "AUC0-24 hr", "setting": "[3]; 400 mg oral, single dose, fed, serum, geometric mean", "value": 5.33, "unit": "µM·h"}, {"measurement": "extent of absorption, effect of high-fat meal", "setting": "[3]; [5]", "value": "small increase"}, {"measurement": "rate of absorption, effect of high-fat meal", "setting": "[3]; [5]", "value": "modest decrease"}, {"measurement": "apparent t1/2", "setting": "[3]; advanced cancer patients, 400 mg oral, serum", "value": "short"}, {"measurement": "Tmax, effect of high-fat meal", "setting": "[3]; fed state, 400 mg oral", "value": "delayed"}, {"measurement": "lag time before detectable levels in serum", "setting": "[3]; fed state, most subjects, 400 mg oral", "value": "at least 15 minutes"}, {"measurement": "Tmax", "setting": "[3]; human, serum, po, 400 mg, 400 mg oral, multiple doses (once daily for 22 days), fed, read-out: Tmax", "value": 4.21, "unit": "h"}, {"measurement": "AUC(0-t)", "setting": "[3]; human, serum, po, 400 mg, 400 mg oral, multiple doses (once daily for 22 days), fed, serum, geometric mean", "value": 6.46, "unit": "µM·h"}, {"measurement": "Cmax", "setting": "[3]; human, serum, po, 400 mg, 400 mg oral, single dose, fasted, geometric mean", "value": 1120, "unit": "nM"}, {"measurement": "half-life", "setting": "[3]; human, serum, po, 400 mg, 400 mg oral, single dose, fasted, harmonic mean", "value": 1.74, "unit": "h"}, {"measurement": "AUC(0-t)", "setting": "[3]; human, serum, po, 400 mg, 400 mg oral, single dose, fasted, serum, geometric mean", "value": 3.82, "unit": "µM·h"}, {"measurement": "Cmax", "setting": "[3]; human, serum, po, 400 mg, 400 mg oral, single dose, fed, geometric mean", "value": 1020, "unit": "nM"}, {"measurement": "half-life", "setting": "[3]; human, serum, po, 400 mg, 400 mg oral, single dose, fed, harmonic mean", "value": 1.44, "unit": "h"}, {"measurement": "Tmax", "setting": "[3]; human, serum, po, 400 mg, 400 mg oral, single dose, fed, read-out: Tmax", "value": 4, "unit": "h"}, {"measurement": "AUC(0-inf)", "setting": "[3]; human, 400 mg oral, single dose, fasted, serum, geometric mean", "value": 3.87, "unit": "µM·h"}, {"measurement": "Trough concentrations", "setting": "[3]; multiple-dose administration, 400 mg once a day, serum", "value": "generally below the limit of quantification"}, {"measurement": "AUC0-∞ GMR (geometric mean ratio)", "setting": "[3]; [6]", "value": "1.38^§"}, {"measurement": "Cmax GMR (geometric mean ratio)", "setting": "[3]; [6]", "value": "0.91^§"}, {"measurement": "tolerability", "setting": "[4]", "value": "generally well tolerated"}]}
